Laboratory results as given in the NIST ThermoML archive (doi:10.1021/je500804j).

Experiment: mn = molality of the nth substance listed, in mol/kg
Details: 101 kPa, Liquid, Alternating current cell with electrodes

CCCCCCCC[N+](C)(C)CCCCCC[N+](C)(C)CCCCCCCC.[Br-].[Br-] + O
Details	electrical conductivity [S/m]
303.15 K, m1 = 0.1147	1.235
303.15 K, m1 = 0.1161	1.242
308.15 K, m1 = 0.00368	0.09215
308.15 K, m1 = 0.00726	0.1725
308.15 K, m1 = 0.01076	0.2453
308.15 K, m1 = 0.01417	0.3115
308.15 K, m1 = 0.0175	0.3725
308.15 K, m1 = 0.02076	0.4289
308.15 K, m1 = 0.02394	0.4827
308.15 K, m1 = 0.02704	0.5324
308.15 K, m1 = 0.03008	0.5804
308.15 K, m1 = 0.03304	0.6259
308.15 K, m1 = 0.03595	0.6694
308.15 K, m1 = 0.03878	0.7099
308.15 K, m1 = 0.04156	0.7496
308.15 K, m1 = 0.04428	0.7852
308.15 K, m1 = 0.04693	0.8231
308.15 K, m1 = 0.05209	0.8882
308.15 K, m1 = 0.05458	0.9163
308.15 K, m1 = 0.05703	0.9472
308.15 K, m1 = 0.05942	0.9728
308.15 K, m1 = 0.06177	1.001
308.15 K, m1 = 0.06407	1.027
308.15 K, m1 = 0.06633	1.05
308.15 K, m1 = 0.06854	1.072
308.15 K, m1 = 0.07072	1.092
308.15 K, m1 = 0.07284	1.111
308.15 K, m1 = 0.07493	1.128
308.15 K, m1 = 0.07698	1.149
308.15 K, m1 = 0.079	1.164
308.15 K, m1 = 0.08097	1.182
308.15 K, m1 = 0.08291	1.195
308.15 K, m1 = 0.08482	1.211
308.15 K, m1 = 0.08669	1.225
308.15 K, m1 = 0.08852	1.238
308.15 K, m1 = 0.09033	1.251
308.15 K, m1 = 0.0921	1.264
308.15 K, m1 = 0.09385	1.276
308.15 K, m1 = 0.09556	1.286
308.15 K, m1 = 0.09725	1.298
308.15 K, m1 = 0.0989	1.308
308.15 K, m1 = 0.1005	1.319
308.15 K, m1 = 0.1021	1.326
308.15 K, m1 = 0.1037	1.337
308.15 K, m1 = 0.1053	1.346
308.15 K, m1 = 0.1068	1.354
308.15 K, m1 = 0.1083	1.363
308.15 K, m1 = 0.1098	1.37
308.15 K, m1 = 0.1112	1.38
308.15 K, m1 = 0.1127	1.385
308.15 K, m1 = 0.1141	1.392
313.15 K, m1 = 0.00383	0.1036
313.15 K, m1 = 0.00755	0.1854
313.15 K, m1 = 0.01119	0.2548
313.15 K, m1 = 0.01473	0.3279
313.15 K, m1 = 0.01819	0.3993
313.15 K, m1 = 0.02156	0.4651
313.15 K, m1 = 0.02485	0.5281
313.15 K, m1 = 0.02806	0.5866
313.15 K, m1 = 0.0312	0.6397
313.15 K, m1 = 0.03426	0.6934
313.15 K, m1 = 0.03725	0.7428
313.15 K, m1 = 0.04018	0.7886
313.15 K, m1 = 0.04304	0.8328
313.15 K, m1 = 0.04583	0.8749
313.15 K, m1 = 0.04857	0.9139
313.15 K, m1 = 0.05386	0.9883
313.15 K, m1 = 0.05642	1.024
313.15 K, m1 = 0.05893	1.055
313.15 K, m1 = 0.06138	1.086
313.15 K, m1 = 0.06379	1.114
313.15 K, m1 = 0.06615	1.139
313.15 K, m1 = 0.06845	1.165
313.15 K, m1 = 0.07072	1.19
313.15 K, m1 = 0.07293	1.212
313.15 K, m1 = 0.07511	1.236
313.15 K, m1 = 0.07724	1.257
313.15 K, m1 = 0.07933	1.276
313.15 K, m1 = 0.08138	1.296
313.15 K, m1 = 0.08339	1.314
313.15 K, m1 = 0.08537	1.332
313.15 K, m1 = 0.0873	1.348
313.15 K, m1 = 0.08921	1.364
313.15 K, m1 = 0.09107	1.378
313.15 K, m1 = 0.09291	1.392
313.15 K, m1 = 0.09471	1.406
313.15 K, m1 = 0.09648	1.418
313.15 K, m1 = 0.09822	1.432
313.15 K, m1 = 0.09993	1.444
313.15 K, m1 = 0.1016	1.457
313.15 K, m1 = 0.1032	1.467
313.15 K, m1 = 0.1049	1.476
313.15 K, m1 = 0.1065	1.487
313.15 K, m1 = 0.108	1.493
313.15 K, m1 = 0.1096	1.505
313.15 K, m1 = 0.1111	1.516
313.15 K, m1 = 0.1126	1.527
313.15 K, m1 = 0.1141	1.537
313.15 K, m1 = 0.1155	1.545
313.15 K, m1 = 0.1169	1.553
318.15 K, m1 = 0.00396	0.09519
318.15 K, m1 = 0.00782	0.2003
318.15 K, m1 = 0.01158	0.2945
318.15 K, m1 = 0.01525	0.381
318.15 K, m1 = 0.01883	0.4611
318.15 K, m1 = 0.02233	0.5339
318.15 K, m1 = 0.02574	0.6047
318.15 K, m1 = 0.02907	0.6691
318.15 K, m1 = 0.03233	0.7314
318.15 K, m1 = 0.03551	0.7874
318.15 K, m1 = 0.03862	0.8418
318.15 K, m1 = 0.04166	0.8941
318.15 K, m1 = 0.04463	0.9453
318.15 K, m1 = 0.04754	0.9898
318.15 K, m1 = 0.05038	1.036
318.15 K, m1 = 0.05589	1.12
318.15 K, m1 = 0.05856	1.154
318.15 K, m1 = 0.06117	1.192
318.15 K, m1 = 0.06373	1.221
318.15 K, m1 = 0.06624	1.254
318.15 K, m1 = 0.06869	1.281
318.15 K, m1 = 0.0711	1.313
318.15 K, m1 = 0.07346	1.338
318.15 K, m1 = 0.07577	1.367
318.15 K, m1 = 0.07804	1.392
318.15 K, m1 = 0.08027	1.412
318.15 K, m1 = 0.08245	1.437
318.15 K, m1 = 0.08459	1.458
318.15 K, m1 = 0.0867	1.474
318.15 K, m1 = 0.08876	1.498
318.15 K, m1 = 0.09078	1.51
318.15 K, m1 = 0.09277	1.532
318.15 K, m1 = 0.09473	1.547
318.15 K, m1 = 0.09665	1.567
318.15 K, m1 = 0.09853	1.582
318.15 K, m1 = 0.1004	1.591
318.15 K, m1 = 0.1022	1.609
318.15 K, m1 = 0.104	1.626
318.15 K, m1 = 0.1057	1.636
318.15 K, m1 = 0.1075	1.647
318.15 K, m1 = 0.1092	1.659
318.15 K, m1 = 0.1109	1.674
318.15 K, m1 = 0.1125	1.687
318.15 K, m1 = 0.1141	1.699
318.15 K, m1 = 0.1157	1.713
318.15 K, m1 = 0.1173	1.724
318.15 K, m1 = 0.1188	1.732
318.15 K, m1 = 0.1203	1.749
318.15 K, m1 = 0.1218	1.761
323.15 K, m1 = 0.00396	0.123
323.15 K, m1 = 0.00782	0.2241
323.15 K, m1 = 0.01158	0.3183
323.15 K, m1 = 0.01526	0.4132
323.15 K, m1 = 0.01884	0.5013
323.15 K, m1 = 0.02233	0.5818
323.15 K, m1 = 0.02575	0.6582
323.15 K, m1 = 0.02908	0.7289
323.15 K, m1 = 0.03234	0.7956
323.15 K, m1 = 0.03552	0.8617
323.15 K, m1 = 0.03863	0.9197
323.15 K, m1 = 0.04167	0.9784
323.15 K, m1 = 0.04464	1.033
323.15 K, m1 = 0.04755	1.084
323.15 K, m1 = 0.0504	1.133
323.15 K, m1 = 0.05591	1.222
323.15 K, m1 = 0.05858	1.262
323.15 K, m1 = 0.06119	1.299
323.15 K, m1 = 0.06375	1.336
323.15 K, m1 = 0.06625	1.367
323.15 K, m1 = 0.06871	1.396
323.15 K, m1 = 0.07112	1.427
323.15 K, m1 = 0.07348	1.453
323.15 K, m1 = 0.07579	1.485
323.15 K, m1 = 0.07806	1.514
323.15 K, m1 = 0.08029	1.542
323.15 K, m1 = 0.08247	1.564
323.15 K, m1 = 0.08461	1.59
323.15 K, m1 = 0.08672	1.613
323.15 K, m1 = 0.08878	1.634
323.15 K, m1 = 0.09081	1.651
323.15 K, m1 = 0.0928	1.671
323.15 K, m1 = 0.09475	1.694
323.15 K, m1 = 0.09667	1.71
323.15 K, m1 = 0.09855	1.728
323.15 K, m1 = 0.1004	1.745
323.15 K, m1 = 0.1022	1.761
323.15 K, m1 = 0.104	1.776
323.15 K, m1 = 0.1058	1.788
323.15 K, m1 = 0.1075	1.804
323.15 K, m1 = 0.1092	1.816
323.15 K, m1 = 0.1109	1.832
323.15 K, m1 = 0.1125	1.841
323.15 K, m1 = 0.1141	1.854
323.15 K, m1 = 0.1157	1.866
323.15 K, m1 = 0.1173	1.881
323.15 K, m1 = 0.1188	1.893
323.15 K, m1 = 0.1203	1.901
323.15 K, m1 = 0.1218	1.917
